Source: patent US20140249056A1, “BILAYERS” (ISIS INNOVATION LIMITED, priority 2009, published 2014)

Tests used:
[1] = biological target: T1, Kv1.3 (K+ channels from lymphocyte membranes) (Homo sapiens, UniProt P22001); experiment: Bulk current block of voltage-gated potassium channels from lymphocyte (SupT1) membranes in droplet bilayer; assay type: biochemical; settings: +50 mV
T1 construct: endogenously expressed voltage-gated potassium channels in primary lymphocytes; endogenous in cells; host or cells: SupT1 cells
Protocol: SupT1 cells were grown as a suspension culture and washed four times in buffer (150 mM KCl, 10 mM Hepes, pH 7.5). Cells were then lysed by hypo-osmotic shock, and membranes isolated by centrifugation and washing in isotonic buffer (140 mM KCl, 10 mM Hepes, pH 7.5). Membranes were diluted 1:10^4 and 1 μL of this solution was deposited on an agarose coated coverslip (1.5%). For bulk current blocking 4-aminopyridine a non-specific K+ channel blocker was used (5 mM, +50 mV). For specific blocking Kaliotoxin, a specific Kv-channel blocker, was used (50 μM, +50 mV).

[2] = biological target: T2, bacterial potassium channel KcsA (Streptomyces lividans, UniProt P0A334); experiment: Bulk current block of KcsA from E. coli membranes reconstituted in droplet bilayer; assay type: biochemical; settings: 150 mM Ba2+ (BaCl2) in droplet, +50 mV, n=5
T2 construct: made in house; host or cells: porin-free E. coli strain PC2889, vector pQE60
T2 sequence (P0A334 1-160): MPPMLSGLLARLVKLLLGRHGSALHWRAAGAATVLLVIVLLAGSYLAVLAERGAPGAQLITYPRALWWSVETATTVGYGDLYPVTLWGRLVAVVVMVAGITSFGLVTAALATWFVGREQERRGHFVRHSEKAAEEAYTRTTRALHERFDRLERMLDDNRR
Protocol: KcsA was overexpressed in pQE60 (Qiagen, Germany) using a porin-free E. coli strain PC2889. Cells were disintegrated using a pressure-based cell homogenizer (TC5-612, Stansted Fluid Power, UK) and membranes isolated by centrifugation in water before freezing in liquid nitrogen. Sedimented membranes were resuspended in 150 mM KCl, 10 mM Hepes, pH 7.5. Membrane preparations were diluted 1:10^6 (for all cases dilutions are reported as volume:volume unless stated otherwise) and 1:10^8 for bulk and single channel recordings, respectively. Bulk and single channel recording was performed in 150 mM KCl, 10 mM Succinic acid, pH 4. Blocking experiments were performed using droplets containing 150 mM BaCl2, 10 mM Hepes, pH 7.5 (+50 mV, n=5).

Gardos K+ ion channel = biological target: T3, Gardos K+ ion channel (Homo sapiens, UniProt O15554+P0DP23); experiment: Ca2+ dependent K+ flux in red blood cell membranes reconstituted in droplet bilayer; assay type: biochemical; settings: 5 mM Ca2+ versus none, 150 mM KCl, pH 7, +50 mV, n=5
T3 construct: red blood cells were isolated from whole blood; from tissue; host or cells: red blood cells from whole blood
Protocol: Following previously published protocol (Gibson et al, J Physiol: 511(Pt1), 225-234 (1998)), red blood cells were isolated from whole blood of Sickle Cell or healthy individuals by centrifugation and washing four times in PBS buffer (137 mM NaCl, 2.7 mM KCl, 10 mM sodium phosphate dibasic, 2 mM potassium phosphate monobasic, pH 7.4, containing 1% glucose), removing remaining blood components by aspiration. Cells were lysed by hypo-osmotic shock in low salt buffer (15 mM NaCl, 10 mM EDTA, 10 mM Hepes, pH 7). Membranes were then sedimented by centrifugation and washed in low salt buffer four times before resuspension into isotonic buffer (150 mM NaCl or KCl or CaCl2, 10 mM Hepes, pH 7.4). For Gardos channel experiments, membranes were resuspended in isotonic buffer containing 150 mM KCl, 10 mM Hepes, pH 7. Droplets with or without Ca^2+ (150 mM KCl, +/−5 mM CaCl2, +/−5 mM KCl, 10 mM Hepes, pH 7, +50 mV, n=5) were used to observe Ca^2+ dependent K^+ flux. […] Further dilution of 1:20 was needed for single channel recordings.

[3] = system: KATP channel (Kir6.2 and SUR1); experiment: Bulk current block of KATP channels from Min6 cell membranes reconstituted in droplet bilayer; assay type: biochemical; settings: glibenclamide 1 mM, +50 mV, 140 mM KCl, 10 mM Hepes, pH 7.5, n=5
Protocol: For KATP channels, Kir6.2 and SUR1 (Sulfonylurea receptor) were co-expressed in Min6 cells. Frozen cells were subjected to three freeze-thaw cycles before they were sonicated for 1 minute (4° C., Sonorex, Bandelin, Germany, 320 W). After isolation of membranes by centrifugation, membranes were washed in isotonic buffer (140 mM KCl, 10 mM Hepes, pH 7.5), and diluted 1:5000. Membranes were incorporated into agarose by mixing (1:10 v:v) with cooling agarose (1.5%) and deposited onto the coverslip prior to device assembly. For single channel recordings the sample was diluted a further 10-fold. Electrical recordings were performed in 140 mM KCl, 10 mM Hepes, pH 7.5 in both droplet and agarose support. Bulk current block was obtained using glybenclamide (1 mM, +50 mV, n=5).

[4] = biological target: Human NR1-1a/NR2A NMDA receptor (Homo sapiens, UniProt Q05586+Q12879); settings: glutamate 10 μM and glycine 10 μM added together, +50 mV, bulk current, n=5
Chain of Human NR1-1a/NR2A NMDA receptor (Q12879 23-1464, other chains not shown): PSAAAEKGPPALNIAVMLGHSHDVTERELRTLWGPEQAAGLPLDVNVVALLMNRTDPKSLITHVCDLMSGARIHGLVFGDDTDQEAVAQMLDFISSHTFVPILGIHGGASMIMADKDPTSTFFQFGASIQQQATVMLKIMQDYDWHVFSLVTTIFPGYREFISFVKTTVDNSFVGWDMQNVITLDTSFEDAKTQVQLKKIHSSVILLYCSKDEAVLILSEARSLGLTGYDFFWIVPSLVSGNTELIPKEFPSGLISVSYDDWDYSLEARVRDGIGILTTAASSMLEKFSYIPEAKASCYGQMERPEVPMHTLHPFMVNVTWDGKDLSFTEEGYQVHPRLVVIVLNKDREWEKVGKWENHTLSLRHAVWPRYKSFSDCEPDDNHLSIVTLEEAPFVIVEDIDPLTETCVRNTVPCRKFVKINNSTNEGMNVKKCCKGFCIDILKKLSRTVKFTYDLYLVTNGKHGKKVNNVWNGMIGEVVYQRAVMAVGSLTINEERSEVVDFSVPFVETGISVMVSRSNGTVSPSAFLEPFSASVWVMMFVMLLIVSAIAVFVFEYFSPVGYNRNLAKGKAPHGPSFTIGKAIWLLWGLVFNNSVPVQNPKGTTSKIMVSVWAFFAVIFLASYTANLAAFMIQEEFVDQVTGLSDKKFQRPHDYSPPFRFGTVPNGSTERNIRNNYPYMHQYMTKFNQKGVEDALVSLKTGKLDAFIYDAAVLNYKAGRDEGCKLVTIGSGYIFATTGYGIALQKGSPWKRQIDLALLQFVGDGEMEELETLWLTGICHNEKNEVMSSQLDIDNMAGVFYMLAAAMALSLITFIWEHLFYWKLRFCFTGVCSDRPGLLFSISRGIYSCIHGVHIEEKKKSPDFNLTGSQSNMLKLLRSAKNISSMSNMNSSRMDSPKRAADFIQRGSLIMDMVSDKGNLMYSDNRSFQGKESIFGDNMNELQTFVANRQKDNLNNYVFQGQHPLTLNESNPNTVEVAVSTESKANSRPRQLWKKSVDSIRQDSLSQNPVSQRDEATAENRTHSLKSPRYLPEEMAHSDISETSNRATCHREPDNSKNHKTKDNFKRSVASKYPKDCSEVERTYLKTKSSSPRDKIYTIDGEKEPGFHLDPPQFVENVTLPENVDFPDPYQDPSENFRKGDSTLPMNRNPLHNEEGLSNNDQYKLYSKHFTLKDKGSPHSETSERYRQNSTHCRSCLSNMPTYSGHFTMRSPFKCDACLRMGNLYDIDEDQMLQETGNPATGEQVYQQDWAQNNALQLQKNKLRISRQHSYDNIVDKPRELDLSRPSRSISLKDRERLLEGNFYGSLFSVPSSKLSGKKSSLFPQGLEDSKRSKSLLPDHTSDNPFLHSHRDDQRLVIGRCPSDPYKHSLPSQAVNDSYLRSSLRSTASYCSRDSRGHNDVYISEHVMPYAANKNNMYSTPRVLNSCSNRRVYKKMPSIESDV
Protocol: Human NR1-1a/NR2A receptor subunits were expressed in a adherent mouse fibroblast 3T3 cell line. After mechanically detaching cells from culture flasks, cells were washed in isotonic buffer (3 times with 140 mM NaCl, 10 mM Hepes, pH 7.5), Cells were then mechanically disrupted by 30 s of ultrasound (Sonorex, Bandelin, Germany, 320 W) and four freeze-thaw cycles. After isolating the membranes by centrifugation and washing in the above buffer, the sample was diluted into the same buffer (1:10^3). […] Upon further dilution of the membrane preparation (1:100) single channels could be recorded (+50 mV applied voltage).

T1 sequence (P22001 whole entry): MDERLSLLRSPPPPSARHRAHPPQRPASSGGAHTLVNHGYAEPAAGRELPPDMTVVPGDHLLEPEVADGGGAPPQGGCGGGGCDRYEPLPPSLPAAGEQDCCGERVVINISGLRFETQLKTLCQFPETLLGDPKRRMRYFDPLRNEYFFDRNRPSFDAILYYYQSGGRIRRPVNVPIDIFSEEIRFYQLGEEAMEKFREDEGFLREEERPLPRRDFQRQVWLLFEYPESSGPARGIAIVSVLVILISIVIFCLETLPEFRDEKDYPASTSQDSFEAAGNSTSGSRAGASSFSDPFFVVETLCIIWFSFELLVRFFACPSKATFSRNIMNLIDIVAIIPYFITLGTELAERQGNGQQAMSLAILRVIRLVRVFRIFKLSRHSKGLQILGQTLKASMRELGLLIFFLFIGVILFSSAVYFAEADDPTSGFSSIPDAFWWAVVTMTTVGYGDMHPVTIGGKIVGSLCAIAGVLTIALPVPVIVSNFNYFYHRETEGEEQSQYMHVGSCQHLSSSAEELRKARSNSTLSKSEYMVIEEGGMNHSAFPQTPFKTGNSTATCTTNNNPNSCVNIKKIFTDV

Question: With `Nc1ccncc1` [4-aminopyridine] as the molecule, how does the “block of bulk current (ion flux reduced)” value ([1]; 5 mM 4-aminopyridine) read?
Answer: 96%

Question: With `[Ba+2].[Cl-].[Cl-]` [Ba^2+, BaCl2] as the molecule, how does the block in current [2] read?
Answer: 93%

Question: With `[Ca+2].[Cl-].[Cl-]` [Ca^2+, CaCl2] as the molecule, how does the “increase of Ca2+ induced K+ flux” value (Gardos K+ ion channel) read?
Answer: seven

Question: `COc1ccc(Cl)cc1C(=O)NCCc1ccc(S(=O)(=O)NC(=O)NC2CCCCC2)cc1` [glibenclamide] was tested. Which bulk currents blocked [3] did it give?
Answer: 91%

Question: With `NCC(=O)O` [glycine] as the molecule, how does the “increase in ionic flux” value [4] read?
Answer: 98%

Question: Which results are given for “Kaliotoxin: a specific Kv-channel blocker”?
Answer: block of bulk current (ion flux reduced) ([1]; 50 μM Kaliotoxin): 99%; block of bulk current (ion flux reduced) ([1]; 50 μM Kaliotoxin, listed as KTX): 99.4%
